Measurements from patent US20250099427A1, “Drug and Method of Treating or Preventing Renal Disease Using Drug” (Showa University, priority 2018, published 2025).

Key:
[1] = test system: Chronic Renal Failure Animal Model; test: Test using chronic renal failure animal model (nephrectomy + acetic acid application), renal function parameters; assay type: in vivo, mouse; settings: mean±standard error; for Urinary output / Urinary protein: 24 h urine 12 weeks after acetic acid; for BUN / sCr: evaluated 12 weeks after acetic acid; for Ccr: creatinine clearance, 12 weeks after acetic acid
Experimental: A male ddY strain mouse (body weight: 30 g to 40 g) was used. Under anesthesia with isoflurane, the right flank of the mouse was incised, the renal arteries and veins were ligated, and then the right kidney was isolated. After suturing, acrinol was applied to the suture site as a disinfection treatment, and enrofloxacin was subcutaneously administered at 5 mg/kg as a preventive measure against infection, and acetaminophen was subcutaneously administered at 75 mg/kg as an analgesic treatment. After a recovery period of 3 to 4 weeks, the left abdomen of the mouse was incised, 100% acetic acid was applied to both sides of the kidney 10 times. This was defined as one course, and two courses were conducted at 5 minute intervals. After suturing, postoperative treatment was conducted in the same manner as in the removal of one of the kidneys. Considering the effect of surgery, a sham group to which acetic acid was not applied was provided.
4 weeks after the application of acetic acid, SMTP-7 was administered at a dose of 10 mg/kg or 30 mg/kg. The administration was carried out three times a week for 8 consecutive weeks by intraperitoneal administration. In addition, physiological saline was similarly administered to the sham group (without acetic acid application) and the Control group (with acetic acid application).
12 weeks after the application of acetic acid, urine was collected for 24 hours using a metabolic cage, and the urinary output was measured. During collecting urine, water was freely given. After urine collection, blood was collected from the descending aorta, the collected blood was centrifuged at 3000 rpm for 15 minutes, serum was separated, and BUN (urea nitrogen) and sCr (serum creatinine value) were measured. Further, protein and creatinine in the urine were also measured to calculate creatinine clearance (Ccr). BUN was measured using Urea B-test Wako (manufactured by Wako Pure Chemical Industries, Ltd.) and a QuantiChrom Urea Assay Kit (manufactured by Funakoshi Co., Ltd.), sCr was measured using Lab Assay Creatinine (manufactured by Wako Pure Chemical Industries, Ltd.), and urinary protein was measured using a BCA Protein assay kit (Thermo Fisher Scientific).
Renal function was evaluated by measuring BUN, sCr, urinary output, and urinary protein. In addition, urinary creatinine was measured to calculate creatinine clearance (Ccr).
In Table 9, the experimental results are expressed in mean±standard error. With reference to statistically significant difference, an unpaired test between two groups (Student's t-test) was conducted for comparison between two groups, and one-way analysis of variance was conducted and then a Dunnett test was conducted for comparison among multiple groups. In all cases, a significance level of 5% or less (P<0.05) was regarded as significant difference.
The experiment and evaluation were carried out in the same manner as in the SMTP-7 (30 mg/kg) administration group, except that edaravone (30 mg/kg) was administered instead of SMTP-7 in the SMTP-7 (30 mg/kg) administration group.

[2] = test system: Acute Renal Failure Animal Model; test: Test using acute renal failure animal model (renal ischemia and reperfusion), renal function parameters; assay type: in vivo, mouse; settings: for Cer: creatinine clearance; for FENa: fractional excretion of sodium; for KW: kidney weight
Excerpt: A male ddY strain mouse (30 g) was used as an experimental animal. Under anesthesia with isoflurane, the right flank was incised about 2 cm to expose the kidney. After ligating the renal arteries and veins and the ureter, the right kidney was isolated.
A recovery period of 2 weeks was given, and then an acute renal failure mouse model was produced. Under anesthesia with isoflurane, the left abdomen was incised about 3 cm to expose the left kidney, and the fat around the renal arteries and veins was removed. The blood flow in the left renal arteries and veins was blocked using an atraumatic clip, and the kidney was left in ischemia for 45 minutes. The blood flow was then reperfused by removing the atraumatic clip, the kidney was returned to the abdominal cavity, and the flank was sutured. Mice similarly subjected to the steps other than the ischemia and reperfusion steps using the atraumatic clip were designated as a sham group (eight mice).
After 15 minutes of the initiation of ischemia, the vehicle, SMTP-7, SMTP-27, SMTP-44D, and edaravone were continuously administered to the femoral vein for 30 minutes.
24 hours after the ischemia and reperfusion processes, urine was collected for 24 hours using a metabolic cage, and the urinary output (UF; μL/min/kg) was measured. During collecting urine, only water was freely given. After urine collection, the body weight of each mouse was measured, and blood was collected from the abdominal aorta under anesthesia with isoflurane. After blood collection, the left kidney was isolated and the fat was removed in physiological saline. The kidney weight (KW; mg/g) was measured, and then the kidney was fixed in a 10% neutral buffered formalin solution for Hematoxylin Eosin (HE) staining.
The collected blood was centrifuged at 800×g for 15 minutes at 25° C. to collect serum. Further, the urine collected using a metabolic cage was also used to evaluate renal function. In order to evaluate parameters in the serum, blood urea nitrogen (BUN; mg/dL) was measured using a QuantiChrom Urea Assay Kit (Funakoshi Co., Ltd.). Serum creatinine concentration (Scr; mg/dL) and urinary creatinine concentration (Ucr; mg/dL) were measured using LabAssay (trademark) Creatinine (manufactured by Wako Pure Chemical Industries, Ltd.), and creatinine clearance (Ccr; mL/min/kg) was calculated. The concentrations of sodium in the serum and urine were measured using Fuji Dry Chem 7000 (manufactured by FUJIFILM Corporation), and fractional excretion of sodium (FENa; %) was calculated. Urinary albumin concentration (Ualb; mg/hr/kg) was measured using Albwel M (manufactured by Cosmo Bio Co., Ltd.).
In Table 11, the experimental results are expressed in mean±standard error in eight mice in each group. For comparison among multiple groups, firstly, one-way analysis of variance (ANOVA) was conducted, and then a Bonferroni test was conducted, if significant difference was recognized. Significant difference was recognized with a significance level of less than 5% (P<0.05).

[3] = 10 mg/kg intraperitoneal three times a week for 8 weeks from 4 weeks after acetic acid
[4] = 30 mg/kg intraperitoneal three times a week for 8 weeks from 4 weeks after acetic acid
[5] = 0.01 mg/kg continuous femoral vein 30 min from 15 min after start of 45 min ischemia, mean±SE, 8 mice
[6] = 0.1 mg/kg continuous femoral vein 30 min from 15 min after start of 45 min ischemia, mean±SE, 8 mice
[7] = 0.1 mg/kg, acute renal failure model
[8] = 1 mg/kg continuous femoral vein 30 min from 15 min after start of 45 min ischemia, mean±SE, 8 mice
[9] = 1 mg/kg, acute renal failure model
[10] = 10 mg/kg continuous femoral vein 30 min from 15 min after start of 45 min ischemia, mean±SE, 8 mice
[11] = 0.01 mg/kg continuous femoral vein 30 min from 15 min after start of 45 min ischemia, mean±SE, 8 mice, 0.01 mg/kg
[12] = 0.1 mg/kg continuous femoral vein 30 min from 15 min after start of 45 min ischemia, mean±SE, 8 mice, 0.1 mg/kg
[13] = 1 mg/kg continuous femoral vein 30 min from 15 min after start of 45 min ischemia, mean±SE, 8 mice, 1 mg/kg
[14] = 10 mg/kg continuous femoral vein 30 min from 15 min after start of 45 min ischemia, mean±SE, 8 mice, 10 mg/kg

CC(C)=CCC/C(C)=C/CC[C@@]1(C)Oc2c(c(O)cc3c2CN(CCC[C@@H](C(=O)O)N2Cc4c(cc(O)c5c4O[C@](C)(CC/C=C(\C)CCC=C(C)C)[C@@H](O)C5)C2=O)C3=O)C[C@@H]1O [SMTP-7]
Urinary output [1, 3]: 0.0986 ± 0.022 mL/min/kg | Urinary protein [1, 3]: 968 ± 137 mg/kg/day | BUN [1, 3]: 80.5 ± 13.3 mg/dL | sCr [1, 3]: 0.71 ± 0.07 mg/dL | Urinary output [1, 4]: 0.0537 ± 0.0128 mL/min/kg | Urinary protein [1, 4]: 527 ± 96.2 mg/kg/day | BUN [1, 4]: 55.1 ± 1.57 mg/dL | sCr [1, 4]: 0.60 ± 0.05 mg/dL | Ccr [1, 3]: 1.95 ± 0.23 mL/min/kg | Ccr ([1]; 30 mg/kg intraperitoneal three times a week for 8 weeks from 4 weeks after acetic acid, 30 mg/kg): 2.66 ± 0.37 mL/min/kg | BUN [2, 5]: 108.8 ± 26.6 mg/dL | Scr [2, 5]: 0.9 ± 0.2 mg/dL | Ualb ([2]; 0.01 mg/kg, acute renal failure model): 1.8 ± 0.3 mg/h/kg | BUN [2, 6]: 125.8 ± 28.7 mg/dL | Scr [2, 6]: 1.0 ± 0.3 mg/dL | UF [2, 7]: 0.0825 ± 0.0088 mL/min/kg | Ualb [2, 7]: 1.1 ± 0.3 mg/h/kg | BUN [2, 8]: 66.0 ± 11.3 mg/dL | Scr [2, 8]: 0.5 ± 0.1 mg/dL | UF [2, 9]: 0.0623 ± 0.0134 mL/min/kg | Ualb [2, 9]: 0.7 ± 0.2 mg/h/kg | BUN [2, 10]: 44.1 ± 2.9 mg/dL | Scr [2, 10]: 0.4 ± 0.0 mg/dL | Ualb ([2]; 10 mg/kg, acute renal failure model): 0.5 ± 0.1 mg/h/kg | Cer [2, 11]: 1.6 ± 0.3 mL/min/kg | Cer [2, 12]: 1.7 ± 0.4 mL/min/kg | Cer [2, 13]: 2.3 ± 0.4 mL/min/kg | Cer [2, 14]: 3.1 ± 0.2 mL/min/kg | FENa [2, 11]: 1.8±0.8% | FENa [2, 12]: 2.3±1.0% | FENa [2, 13]: 1.0±0.2% | FENa [2, 14]: 0.7±0.1% | KW [2, 11]: 14.5 ± 0.6 mg/g | KW [2, 12]: 13.6 ± 1.0 mg/g | KW [2, 13]: 11.2 ± 0.8 mg/g | KW [2, 14]: 11.1 ± 0.4 mg/g | Ualb ([2]; urinary albumin, 0.01 mg/kg continuous femoral vein 30 min from 15 min after start of 45 min ischemia, mean±SE, 8 mice): 1.8 ± 0.3 mg/h/kg | Ualb ([2]; urinary albumin, 0.1 mg/kg continuous femoral vein 30 min from 15 min after start of 45 min ischemia, mean±SE, 8 mice): 1.1 ± 0.3 mg/h/kg | Ualb ([2]; urinary albumin, 1 mg/kg continuous femoral vein 30 min from 15 min after start of 45 min ischemia, mean±SE, 8 mice): 0.7 ± 0.2 mg/h/kg | Ualb ([2]; urinary albumin, 10 mg/kg continuous femoral vein 30 min from 15 min after start of 45 min ischemia, mean±SE, 8 mice): 0.5 ± 0.1 mg/h/kg
